Test results taken from PMC7377239, “Cardiovascular Effects of Polychlorinated Biphenyls and Their Major Metabolites” (Environmental Health Perspectives, 2020).
Counter-ions that a name gives are not always drawn. Like-named read-outs stand apart in the source and are kept apart here.

System: iCell cardiomyocytes (human iPSC-derived cardiomyocytes)
Experiment: High-content imaging of cytotoxicity and mitochondrial integrity in iPSC-CMs
Assay type: cell-based
Conditions: Homo sapiens; for viability at 0.01 µM / activity at 0.01 µM / viability at 0.1 µM / activity at 0.1 µM / viability at 1 µM / activity at 1 µM / viability at 10 µM / activity at 10 µM / viability at 100 µM / activity at 100 µM: Cardiomyocyte, 0.00 µM = 100.00; for viability at 0.1 µM / activity at 0.1 µM: 0.10 µM; for minimal effective concentration: iPSC-CM
How it was run: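 Human iPSC-derived cardiomyocytes were seeded on gelatin-coated 384-well plates at 5,000 cells per well and maintained for 12 d. Test chemicals were added as 10μL of 5× solutions to final concentrations of 0.01 to 100μM. Cells were stained with Hoechst 33342 and MitoTracker™ Orange, fixed in formaldehyde, and imaged by confocal high-content microscopy at 10× magnification.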

O=S(=O)(O)Oc1cc(-c2ccccc2)ccc1Cl [3-yl PCB 3 sulfate]
viability at 0.01 µM (1.5 h, read-out: cm.cam.90min): 100% | activity at 0.01 µM (1.5 h, read-out: cm.mii.90min): 110% | activity at 0.01 µM (1.5 h, read-out: cm.mito.90min): 100% | viability at 0.01 µM (1.5 h, read-out: cm.tc.90min): 101% | viability at 0.1 µM (1.5 h, read-out: cm.cam.90min): 97.4% | activity at 0.1 µM (1.5 h, read-out: cm.mii.90min): 109% | activity at 0.1 µM (1.5 h, read-out: cm.mito.90min): 97.4% | viability at 0.1 µM (1.5 h, read-out: cm.tc.90min): 97.6% | viability at 1 µM (1.5 h, read-out: cm.cam.90min): 104% | activity at 1 µM (1.5 h, read-out: cm.mii.90min): 106% | activity at 1 µM (1.5 h, read-out: cm.mito.90min): 104% | viability at 1 µM (1.5 h, read-out: cm.tc.90min): 104% | viability at 10 µM (1.5 h, read-out: cm.cam.90min): 106% | activity at 10 µM (1.5 h, read-out: cm.mii.90min): 98.4% | activity at 10 µM (1.5 h, read-out: cm.mito.90min): 106% | viability at 10 µM (1.5 h, read-out: cm.tc.90min): 106% | viability at 100 µM (1.5 h, read-out: cm.cam.90min): 104% | activity at 100 µM (1.5 h, read-out: cm.mii.90min): 108% | activity at 100 µM (1.5 h, read-out: cm.mito.90min): 104% | viability at 100 µM (1.5 h, read-out: cm.tc.90min): 104% | viability at 0.01 µM (24 h, read-out: cm.cam.24hrs): 87.7% | activity at 0.01 µM (24 h, read-out: cm.mii.24hrs): 113% | activity at 0.01 µM (24 h, read-out: cm.mito.24hrs): 86% | viability at 0.01 µM (24 h, read-out: cm.tc.24hrs): 88.2% | viability at 0.1 µM (24 h, read-out: cm.cam.24hrs): 99.9% | activity at 0.1 µM (24 h, read-out: cm.mii.24hrs): 109% | activity at 0.1 µM (24 h, read-out: cm.mito.24hrs): 99.5% | viability at 0.1 µM (24 h, read-out: cm.tc.24hrs): 101% | viability at 1 µM (24 h, read-out: cm.cam.24hrs): 96.5% | activity at 1 µM (24 h, read-out: cm.mii.24hrs): 102% | activity at 1 µM (24 h, read-out: cm.mito.24hrs): 93.7% | viability at 1 µM (24 h, read-out: cm.tc.24hrs): 96.4% | viability at 10 µM (24 h, read-out: cm.cam.24hrs): 91.9% | activity at 10 µM (24 h, read-out: cm.mii.24hrs): 89.9% | activity at 10 µM (24 h, read-out: cm.mito.24hrs): 88.6% | viability at 10 µM (24 h, read-out: cm.tc.24hrs): 92.3% | viability at 100 µM (24 h, read-out: cm.cam.24hrs): 96.9% | activity at 100 µM (24 h, read-out: cm.mii.24hrs): 83.9% | activity at 100 µM (24 h, read-out: cm.mito.24hrs): 97.6% | viability at 100 µM (24 h, read-out: cm.tc.24hrs): 97.8% | minimal effective concentration (1.5 h, read-out: cm.cam.90min POD): 100 µM | minimal effective concentration (1.5 h, read-out: cm.mii.90min POD): 100 µM | minimal effective concentration (1.5 h, read-out: cm.mito.90min POD): 100 µM | minimal effective concentration (1.5 h, read-out: cm.tc.90min POD): 100 µM | minimal effective concentration (24 h, read-out: cm.cam.24hrs POD): 100 µM | minimal effective concentration (24 h, read-out: cm.mii.24hrs POD): 22.8 µM | minimal effective concentration (24 h, read-out: cm.mito.24hrs POD): 100 µM | minimal effective concentration (24 h, read-out: cm.tc.24hrs POD): 100 µM
